How the values were obtained:
[1] = test system: cocklebur (common cocklebur, Xanthium strumarium); test: Test E pre-/postemergence greenhouse test, plant response rating 0-100; format: in vivo; settings: Preemergence, scale 0 to 100
How it was run: (§1)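 Greenhouse pot assay, two application timings. Pre- to silt loam at planting; post- to 1–4-leaf plants. Visual 0–100 score at 14–21 d.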

[2] = test system: nightshade (eastern black nightshade, Solanum ptycanthum); test: as above; format: in vivo; settings: Preemergence, scale 0 to 100
How it was run: as §1

O=C(c1ccccc1)c1cn(S(=O)(=O)C(F)(F)F)nc1-c1cc(Cl)cc(Cl)c1 [Compound 2]
0: Cocklebur plant response rating ([1]; 31 g ai/ha) | Cocklebur plant response rating ([1]; 62 g ai/ha) | Cocklebur plant response rating ([1]; 125 g ai/ha) | Cocklebur plant response rating ([1]; 250 g ai/ha)

O=C(c1ccccc1)c1cn(S(=O)(=O)CC(F)(F)F)nc1-c1cc(Cl)cc(Cl)c1 [Compound 3]
0: Cocklebur plant response rating ([1]; 31 g ai/ha) | Cocklebur plant response rating ([1]; 250 g ai/ha)

O=C(c1ccccc1)c1cn(CO)nc1-c1cc(Cl)cc(Cl)c1 [Compound 15, [3-(3,5-dichlorophenyl)-1-(hydroxymethyl)-1H-pyrazol-4-yl]phenylmethanone]
0: Cocklebur plant response rating ([1]; 31 g ai/ha) | Cocklebur plant response rating ([1]; 62 g ai/ha) | Cocklebur plant response rating ([1]; 125 g ai/ha)

O=Cn1cc(C(=O)c2ccccc2)c(-c2cc(Cl)cc(Cl)c2)n1 [Compound 28]
0: Nightshade plant response rating ([2]; 31 g ai/ha) | Nightshade plant response rating ([2]; 62 g ai/ha) | Nightshade plant response rating ([2]; 125 g ai/ha) | Nightshade plant response rating ([2]; 250 g ai/ha) | Nightshade plant response rating ([2]; 500 g ai/ha)

Source: patent US10167262B2, “Herbicidal substituted 3-arylpyrazoles” (FMC CORPORATION, priority 2014, dated 2019)
